Source: US20130078224A1, “INDUCTION/MONITORING OF ARTERIOGENESIS USING SDF1 AND PDGFB OR INHIBITION OF PHD2” (LIFE SCIENCES RESEARCH PARTNERS VZW, priority 2010, published 2013)

B1: angiopoietin-2: Tie2 ligand cytokine (Prospec) (protein, UniProt O15123 19-496, looked up)
Angiopoietin-2: YNNFRKSMDSIGKKQYQVQHGSCSYTFLLPEMDNCRSSSSPYVSNAVQRDAPLEYDDSVQRLQVLENIMENNTQWLMKLENYIQDNMKKEMVEIQQNAVQNQTAVMIEIGTNLLNQTAEQTRKLTDVEAQVLNQTTRLELQLLEHSLSTNKLEKQILDQTSEINKLQDKNSFLEKKVLAMEDKHIIQLQSIKEEKDQLQVLVSKQNSIIEELEKKIVTATVNNSVLQKQQHDLMETVNNLLTMMSTSNSAKDPTVAKEEQISFRDCAEVFKSGHTTNGIYTLTFPNSTEEIKAYCDMEAGGGGWTIIQRREDGSVDFQRTWKEYKVGFGNPSGEYWLGNEFVSQLTNQQRYVLKIHLKDWEGNEAYSLYEHFYLSSEELNYRIHLKGLTGTAGKISSISQPGNDFSTKDGDNDKCICKCSQMLTGGWWFDACGPSNLNGMYYPQRQNTNKFNGIKWYYWKGSGYSLKATTMMIRPADF
B2: PlGF: ischemia-induced cytokine (protein, UniProt P49763 19-221, looked up)
Placenta growth factor: LPAVPPQQWALSAGNGSSEVEVVPFQEVWGRSYCRALERLVDVVSEYPSEVEHMFSPSCVSLLRCTGCCGDENLHCVPVETANVTMQLLKIRSGDRPSYVELTFSQHVRCECRHSPGRQSPDMPGDFRADAPSFLPPRRSLPMLFRMEWGCALTGSQSAVWPSSPVPEEIPRMHPGRNGKKQQRKPLREKMKPERCGDAVPRR
B3: PDGFB: platelet-derived growth factor beta protein (protein, UniProt P01127 82-190, looked up)
Platelet-derived growth …: SLGSLTIAEPAMIAECKTRTEVFEISRRLIDRTNANFLVWPPCVEVQRCSGCCNNRNVQCRPTQVQLRPVQVRKIEIVRKKPIFKKATVTLEDHLACKCETVAAARPVT

Legend:
[1] = system: collateral branches, circulating TEMs; test: Acute PHD2 deletion by tamoxifen in HERosa26CreERT→WT mice: TEMs, collaterals, ischemic damage; assay type: in vivo
Procedure: Bone Marrow (BM) Transplantation and Hematological Analysis: Balb/c WT and PHD2^+/− recipient mice were irradiated with 7.5 Gy. Subsequently, 5×10^6 bone marrow cells from green fluorescent protein^+ (GFP^+) WT or GFP^+ PHD2^+/− mice were injected intravenously via the tail vein. After one week, saline or AMD3100 (5 mg/kg) was administered intravenously and saline or imatinib ([…]) was administered by oral gavage for four weeks. Femoral artery ligation, treadmill running test and bismuth angiography were performed at six weeks after bone marrow reconstitution. Red and white blood cell count was determined using a hemocytometer on peripheral blood collected in heparin with capillary pipettes by retro-orbital bleeding. To assess the effect of acute deletion of macrophage-borne PHD2 on arteriogenesis, PHD2^Rosa26CreERT;lox/wt bone marrows were transplanted into lethally irradiated WT recipient mice. After five weeks, transplanted mice were injected i.p. with tamoxifen (1 mg/mouse; Sigma) or vehicle for five days. TEM quantification and femoral artery ligation were performed ten days after tamoxifen treatment as explained above. The bone marrow of PHD2^WT;Tie2:GFP or PHD2^HE;Tie2:GFP mice was transplanted in lethally irradiated WT mice. After five weeks, mice were injected systemically (5×10^11 vp) and locally (5×10^9 vp in two points of the adductor) with an AAV9 encoding the mouse extracellular domain of Tie2 fused to a flag tag (AAV9:sTie2). AAV9 encoding the human serum albumin was used as control. One week after injection of the viral vector, mice were subjected to femoral artery ligation. Blood and adductor samples were harvested at baseline and 72 hours post-ischemia and used to sort CD115^+GFP^+ circulating monocytes and F4/80^+GFP^+ macrophages.

[2] = system: PHD2; test: PHD2 expression (qPCR) in bone marrow-derived monocyte/macrophage cultures upon cytokine stimulation; assay type: cell-based, mice; conditions: for PHD2 transcripts: WT cultures, any of the concentrations tested (50 and 250 ng/mL)
Procedure: Quantitative PCR Analysis: In order to investigate gene expression in pMØ, quantitative RT-PCR (qRT-PCR) was performed. After preparing pMØ, the cells were cultured in normoxic condition for twelve hours, and the RNA was extracted. To analyze the gene profile of adductor, gastrocnemius, and soleus muscle, tissues were collected at baseline or 24 hours/72 hours post-ischemia and RNA was extracted. Macrophages and ECs were freshly sorted from dissected adductors as described below and RNA was extracted. Quantitative RT-PCR was perfouned with commercially available or homemade primers and probes for the studied genes. The assay ID (Applied Biosystems, Foster City, Calif.) or the sequence of primers and probes (when homemade) are listed in Table 5. RNA levels of Tie-2, SDF1 and PDGFB after inhibition of NF-κB pathway were measured by qRT-PCR on pMØ exposed for twelve hours to 500 nM 6-amino-4-(4-phenoxyphenylethylamino)quinazoline. […] After 24 hours, cells were harvested for RNA extraction and cDNA preparation.

[3] = tamoxifen 1 mg/mouse for five days

Row | Molecule | PHD2 transcripts [2] | other results
1 | CC/C(=C(\c1ccccc1)c1ccc(OCCN(C)C)cc1)c1ccccc1 [tamoxifen] |  | ischemic damage ([1]; 72 hours after femoral artery ligation): greatly reduced; circulating TEMs ([1]; 14 days after tamoxifen 1 mg/mouse for five days, vs vehicle): almost three-fold increased; secondary collateral branches, abundance vs vehicle [1, 3]: 1.6 times; tertiary collateral branches, abundance vs vehicle [1, 3]: 2.3 times
2 | SDF1: Stromal cell-derived factor 1, alpha chemokine | did not affect | 
3 | MCP1: monocyte chemotactic protein-1, ischemia-induced cytokine | did not affect | 
4 | VEGF | did not affect | 
5 | B1 |  | reduction of PHD2 levels ([2]; WT monocytes/macrophages, only at 50 ng/ml): 15%
6 | B2 | did not affect | 
7 | B3 | did not affect | 
